Data on 34 compounds can be found in patent US9771370B2, “Compounds for the inhibition of indoleamine-2,3-dioxygenase” (Merck Patent GmbH, priority 2014, dated 2017).

“And” between values parts separate entries of the source, which are not always exact repeats. Identical values can stand only once.

Chain of Recombinant human IDO (P14902 whole entry): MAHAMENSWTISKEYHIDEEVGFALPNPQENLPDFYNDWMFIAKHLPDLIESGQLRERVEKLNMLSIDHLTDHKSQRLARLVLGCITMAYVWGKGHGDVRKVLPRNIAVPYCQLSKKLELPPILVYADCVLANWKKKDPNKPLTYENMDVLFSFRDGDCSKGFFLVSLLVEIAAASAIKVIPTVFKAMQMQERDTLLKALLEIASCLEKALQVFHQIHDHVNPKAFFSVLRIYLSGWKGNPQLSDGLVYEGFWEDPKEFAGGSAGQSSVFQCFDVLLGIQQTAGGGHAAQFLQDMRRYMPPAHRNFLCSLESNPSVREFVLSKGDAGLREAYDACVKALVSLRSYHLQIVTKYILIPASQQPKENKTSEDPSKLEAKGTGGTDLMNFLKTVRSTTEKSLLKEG

In this assay the target is Recombinant human IDO (Homo sapiens, UniProt P14902). As to the kind of experiment: Bridge-IT tryptophan fluorescence assay of human IDO-1 inhibition. In kind it is biochemical. To be noted: recombinant human IDO 7.5 nM, L-tryptophan. The procedure, abridged:
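One variant ran L-Trp at 100 μM for 90 min at 37 °C. The other pre-incubated compound for 30 min at 25 °C, then ran 50 μM L-Trp for 60 min at 25 °C.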
On to `CC(C)(C)C(=O)N1CCC(C(O)CC2c3ncccc3-c3cncn32)CC1` (single isomer, unassigned) [Compound 88d, 1-[4-[1-hydroxy-2-[4,6,9-triazatricyclo[6.4.0.0^[2,6]]dodeca-1(8),2,4,9,11-pentaen-7-yl]ethyl]piperidin-1-yl]-2,2-dimethylpropan-1-one], for which the IC50 was above 1000 nM. On to `FC1(CCC2c3nc(C(F)(F)F)ccc3-c3cncn32)CCCCC1` (single isomer, unassigned) [Compound 76b, 7-[2-(1-fluorocyclohexyl)ethyl]-10-(trifluoromethyl)-4,6,9-triazatricyclo[6.4.0.0^[2,6]]dodeca-1(8),2,4,9,11-pentaene], for which the half-inhibitory concentration (IC50) was above 1000 nM. To `Oc1cccc2c1-c1cncn1C2CCC1(F)CCCCC1` (single isomer, unassigned) [Compound 43a, 5-(2-(1-fluorocyclohexyl)ethyl)-5H-imidazo[5,1-a]isoindol-9-ol] belongs above 1000 nM.

Regarding `COc1ccc2c(n1)C(CC(O)C1CCC3(CC1)CC3)n1cncc1-2` (single isomer, unassigned) [Compound 53c, 2-[10-methoxy-4,6,9-triazatricyclo[6.4.0.0^[2,6]]dodeca-1(8),2,4,9,11-pentaen-7-yl]-1-[spiro[2.5]octan-6-yl]ethan-1-ol], the IC50 is above 1000 nM. To `OC(CC1c2cc(F)ncc2-c2cncn21)C1CCCCC1` (single isomer, unassigned) [Compound 24b, 1-cyclohexyl-2-[10-fluoro-4,6,11-triazatricyclo[6.4.0.0^[2,6]]dodeca-1(8),2,4,9,11-pentaen-7-yl]ethan-1-ol] belongs above 1000 nM. To `O=C(C1CCC(F)(CCC2c3c(Cl)cccc3-c3cncn32)CC1)N1CCCCC1` (single isomer, unassigned) [Compound 115d] belongs above 1000 nM; to `OC(CC1c2ncncc2-c2cncn21)C1CCCCC1` (stereo not shown) [Compound 67a, 1-cyclohexyl-2-[4,6,9,11-tetraazatricyclo[6.4.0.0^[2,6]]dodeca-1(8),2,4,9,11-pentaen-7-yl]ethan-1-ol], > 1000 nM and 100 to 1000 nM.

As to `OC1CCC(F)(CCC2c3c(Cl)cccc3-c3cncn32)CC1` (single isomer, unassigned) [Compound 71d, 4-[2-[6-chloro-5H-imidazo[4,3-a]isoindol-5-yl]ethyl]-4-fluorocyclohexan-1-ol], the IC50 is below 100 nM. Regarding `NC(=O)C1CCC(F)(CCC2c3c(F)cccc3-c3cncn32)CC1` (single isomer, unassigned) [Compound 81b, 4-fluoro-4-[2-[6-fluoro-5H-imidazo[4,3-a]isoindol-5-yl]ethyl]cyclohexane-1-carboxamide], the IC50 was above 1000 nM.

Take `OC(CC1c2nc(Cl)ccc2-c2cncn21)C1CCCCC1` (single isomer, unassigned) [Compound 55a, 2-[10-chloro-4,6,9-triazatricyclo[6.4.0.0^[2,6]]dodeca-1(8),2,4,9,11-pentaen-7-yl]-1-cyclohexylethan-1-ol]: the IC50 is 100 to 1000 nM. On to `Oc1cccc2c1-c1cncn1C2CCC1(F)CCCCC1` (single isomer, unassigned) [Compound 43b, 5-(2-(1-fluorocyclohexyl)ethyl)-5H-imidazo[5,1-a]isoindol-9-ol], for which the IC50 was below 100 nM. To `OC(CC1c2nccc(F)c2-c2cncn21)C1CCCCC1` (single isomer, unassigned) [Compound 101b, 1-cyclohexyl-2-[12-fluoro-4,6,9-triazatricyclo[6.4.0.0^[2,6]]dodeca-1(8),2,4,9,11-pentaen-7-yl]ethan-1-ol] belongs above 1000 nM; to `COc1ccc2c(n1)C(CC(O)C1CCC(C)(C)CC1)n1cncc1-2` (single isomer, unassigned) [Compound 40a, 1-(4,4-dimethylcyclohexyl)-2-[10-methoxy-4,6,9-triazatricyclo[6.4.0.0^[2,6]]dodeca-1(8),2,4,9,11-pentaen-7-yl]ethan-1-ol], above 1000 nM; to `CN(C)C(=O)C1CCC(F)(CCC2c3c(Cl)cccc3-c3cncn32)CC1` (single isomer, unassigned) [Compound 114a, 4-[2-[6-chloro-5H-imidazo[4,3-a]isoindol-5-yl]ethyl]-4-fluoro-N,N-dimethylcyclohexane-1-carboxamide], below 100 nM. Consider `OC(CC1c2ncncc2-c2cncn21)C1CCCCC1` (single isomer, unassigned) [Compound 67c, 1-cyclohexyl-2-[4,6,9,11-tetraazatricyclo[6.4.0.0^[2,6]]dodeca-1(8),2,4,9,11-pentaen-7-yl]ethan-1-ol], for which the half-inhibitory concentration (IC50) was above 1000 nM. For `OCC1CCC(F)(CCC2c3ccccc3-c3cncn32)CC1` (single isomer, unassigned) [Compound 59d, [4-fluoro-4-[2-[5H-imidazo[4,3-a]isoindol-5-yl]ethyl]cyclohexyl]methanol] the value was above 1000 nM; for `NS(=O)(=O)C1CCC(F)(CCC2c3ccccc3-c3cncn32)CC1` (single isomer, unassigned) [Compound 121b, 4-fluoro-4-[2-[5H-imidazo[4,3-a]isoindol-5-yl]ethyl]cyclohexane-1-sulfonamide], above 1000 nM. `OC(CC1c2nc(OC3CC3)ccc2-c2cncn21)C1CCCCC1` (mixture of isomers) [Compound 68b, 1-cyclohexyl-2-[10-cyclopropoxy-4,6,9-triazatricyclo[6.4.0.0^[2,6]]dodeca-1(8),2,4,9,11-pentaen-7-yl]ethan-1-ol]: the IC50 was above 1000 nM. To `CC(C)(O)C1CCC(F)(CCC2c3ccccc3-c3cncn32)CC1` (single isomer, unassigned) [Compound 61c, 2-[4-fluoro-4-[2-[5H-imidazo[4,3-a]isoindol-5-yl]ethyl]cyclohexyl]propan-2-ol] belongs below 100 nM; to `OC(CC1c2nc(C3CC3)ccc2-c2cncn21)C1CCCCC1` (stereo not shown) [Compound 56a, 1-cyclohexyl-2-[10-cyclopropyl-4,6,9-triazatricyclo[6.4.0.0^[2,6]]dodeca-1(8),2,4,9,11-pentaen-7-yl]ethan-1-ol], below 100 nM; to `NS(=O)(=O)C1CCC(F)(CCC2c3ccccc3-c3cncn32)CC1` (single isomer, unassigned) [Compound 121c, 4-fluoro-4-[2-[5H-imidazo[4,3-a]isoindol-5-yl]ethyl]cyclohexane-1-sulfonamide], above 1000 nM. For `Fc1cccc2c1C(CC(F)(F)C1CCCCC1)n1cncc1-2` (racemic) [Compound 65, 5-(2-cyclohexyl-2,2-difluoroethyl)-6-fluoro-5H-imidazo[4,3-a]isoindole], the IC50 was in the range of 100 to 1000 nM.

Take `Fc1cccc2c1C(CC(F)C1CCCCC1)n1cncc1-2` (single isomer, unassigned) [Compound 98a, 5-[2-cyclohexyl-2-fluoroethyl]-6-fluoro-5H-imidazo[4,3-a]isoindole]: the IC50 lay within 100 to 1000 nM. Turning to `FC1(CCC2c3c(Cl)cccc3-c3cncn32)CCCCC1` (single isomer, unassigned) [Compound 70a, 6-chloro-5-[2-(1-fluorocyclohexyl)ethyl]-5H-imidazo[4,3-a]isoindole], the IC50 was above 1000 nM. To `COc1cc2c(cn1)-c1cncn1C2CCC1(F)CCCCC1` (single isomer, unassigned) [Compound 15a, 7-[2-(1-fluorocyclohexyl)ethyl]-10-methoxy-4,6,11-triazatricyclo[6.4.0.0^[2,6]]dodeca-1(8),2,4,9,11-pentaene] belongs above 1000 nM; to `OC(CC1c2ncccc2-c2cncn21)C1CCOCC1` (single isomer, unassigned) [Compound 92a, 1-(oxan-4-yl)-2-[4,6,9-triazatricyclo[6.4.0.0^[2,6]]dodeca-1(8),2,4,9,11-pentaen-7-yl]ethan-1-ol], above 1000 nM; to `OC1CCC(F)(CCC2c3cccc(F)c3-c3cncn32)CC1` (single isomer, unassigned) [Compound 35c, 4-fluoro-4-(2-(9-fluoro-5H-imidazo[5,1-a]isoindol-5-yl)ethyl)cyclohexanol], below 100 nM. Consider `CN(C)C(=O)C1CCC(F)(CCC2c3c(Cl)cccc3-c3cncn32)CC1` (single isomer, unassigned) [Compound 114b, 4-[2-[6-chloro-5H-imidazo[4,3-a]isoindol-5-yl]ethyl]-4-fluoro-N,N-dimethylcyclohexane-1-carboxamide], for which the 50% inhibitory concentration (IC50) is below 100 nM. For `OC(CC1c2nccc(F)c2-c2cncn21)C1CCCCC1` (single isomer, unassigned) [Compound 101d, 1-cyclohexyl-2-[12-fluoro-4,6,9-triazatricyclo[6.4.0.0^[2,6]]dodeca-1(8),2,4,9,11-pentaen-7-yl]ethan-1-ol] the value was above 1000 nM. Turning to `CC(C)[C@H](N)C(=O)N1CCC(F)(CCC2c3ccccc3-c3cncn32)CC1` (single isomer, unassigned) [Compound 89a], the half-inhibitory concentration (IC50) was above 1000 nM.

Take `OCC1CCC(F)(CCC2c3c(Cl)cccc3-c3cncn32)CC1` (single isomer, unassigned) [Compound 105a, [4-[2-[6-chloro-5H-imidazo[4,3-a]isoindol-5-yl]ethyl]-4-fluorocyclohexyl]methanol]: the half-inhibitory concentration (IC50) is above 1000 nM. To `OC(CC1c2ncccc2-c2cncn21)C1CCC2(CC1)CC2` (single isomer, unassigned) [Compound 29c, 1-[spiro[2.5]octan-6-yl]-2-[4,6,9-triazatricyclo[6.4.0.0^[2,6]]dodeca-1(8),2,4,9,11-pentaen-7-yl]ethan-1-ol] belongs 100 to 1000 nM; to `NC(=O)C1CCC(F)(CCC2c3ccccc3-c3cncn32)CC1` (single isomer, unassigned) [Compound 79a, 4-fluoro-4-[2-[5H-imidazo[4,3-a]isoindol-5-yl]ethyl]cyclohexane-1-carboxamide], above 1000 nM; to `NC(=O)CC1CCC(F)(CCC2c3ccccc3-c3cncn32)CC1` (single isomer, unassigned) [Compound 112d, 2-[4-fluoro-4-[2-[5H-imidazo[4,3-a]isoindol-5-yl]ethyl]cyclohexyl]acetamide], below 100 nM.
